We go through one compound from ChEMBL document CHEMBL5584313, “Design and Synthesis of 7-Oxabicyclo[2.2.1]heptane-2,3-dicarboxylic Acid Derivatives as PP5 Inhibitors To Reverse Temozolomide Resistance in Glioblastoma Multiforme” (J Med Chem, 2024).

The source made the active and inactive calls. No cut-off for these calls is given here.

Data set [1] is described as follows: Cmax in Sprague-Dawley rat at 25 mg/kg, po measured upto 24 hrs by LC-MS/MS method. It counts as ADME, organism-based. To be noted: in vivo.
Data set [2] is described as follows: Apparent volume of distribution in Sprague-Dawley rat at 25 mg/kg, po measured upto 24 hrs by LC-MS/MS method. The note with it: in vivo. It counts as ADME, organism-based.
A short description of data set [3]: MRT(0 to infinity) in Sprague-Dawley rat at 25 mg/kg, po measured upto 24 hrs by LC-MS/MS method. Type of data set: ADME, organism-based. The note with it: in vivo.
The test system of data set [4] is U-87 MG. Put plainly: Antitumor activity against human U-87 MG cells xenografted in BALB/c nude mouse assessed as tumor growth retardation at 3 mg/kg, po administered every other day for 18 days. Type of data set: functional, organism-based. To be noted: U-87MG ATCC, time 18.0 day. (In general: A xenograft is tissue or cells of one species grown in another, often human tumour cells in immunodeficient mice.)

A short description of data set [5]: AUC(0 to infinity) in Sprague-Dawley rat at 25 mg/kg, po measured upto 24 hrs by LC-MS/MS method. To be noted: in vivo. Type of data set: ADME, organism-based.
Data set [6] can be described thus: Cytotoxicity against human BEAS-2B incubated for 48 hrs by CCK8 assay. Type of data set: toxicity, cell-based. The note with it: BEAS-2B cells.
Data set [7] is described as follows: Apparent volume of distribution in Sprague-Dawley rat at 5 mg/kg, iv measured upto 24 hrs by LC-MS/MS method. Type of data set: ADME, organism-based. The note with it: in vivo, read-out: Vz.
Data set [8] is described as follows: Toxicity in BALB/c nude mouse xenografted with U-87 MG cells assessed as kidney damage at 1.5 to 3 mg/kg, po administered every other day for 18 days in presence of 40 mg/kg TMZ by H and E staining based assay. Type of data set: organism-based. To be noted: in vivo, 432 h, dose 1.5-3 mg/kg, time 18 day.
Data set [9] has as its system U-87 MG. In words: Induction of apoptosis in human U-87 MG cells assessed as G2/M phase cells at 5 uM incubated for 24 hrs by propidium iodide staining based flow cytometry analysis (reference value: 11.9%). It counts as functional, U-87MG ATCC. Background: Flow cytometry measures light scatter and fluorescence of single cells or particles in a stream.
Data set [10] can be described thus: Inhibition of PP2A in human U-87 MG cell lysate using RRA(pT)VA as substrate. It counts as subcellular.
Data set [11] in a line: Cytotoxicity against HUVECs incubated for 48 hrs by CCK8 assay. The note with it: human, HUVEC cells. It counts as toxicity, cell-based. Background: Formazan colour is commonly taken as a measure of viable cells.
The nature of data set [12]: Tmax in Sprague-Dawley rat at 25 mg/kg, po measured upto 24 hrs by LC-MS/MS method. Type of data set: ADME, organism-based. The note with it: in vivo.
In another data set the test system is U-87MG ATCC. In words: Upregulation of p53 expression in human U-87 MG cells at 6.25 to 100 uM after 24 hrs by Western blotting analysis. Type of data set: functional, cell-based. To be noted: dose 6.25-100 µM.
The nature of data set [13]: Toxicity in BALB/c nude mouse xenografted with U-87 MG cells assessed as lung damage at 1.5 to 3 mg/kg, po administered every other day for 18 days in presence of 40 mg/kg TMZ by H and E staining based assay. It counts as organism-based. The note with it: in vivo, 432 h, dose 1.5-3 mg/kg, time 18 day.
In data set [14] the test system is U-87 MG. In words: Antitumor activity against human U-87 MG cells xenografted in BALB/c nude mouse assessed as tumor growth inhibition at 3 mg/kg, po administered every other day for 18 days in presence of 40 mg/kg TMZ. It counts as functional, U-87MG ATCC. The note with it: 432 h, time 18 day, read-out: TGI.
The nature of data set [15]: Toxicity in BALB/c nude mouse xenografted with U-87 MG cells assessed as change in body weight at 1.5 to 3 mg/kg, po administered every other day for 18 days in presence of 40 mg/kg TMZ. Type of data set: organism-based. The note with it: in vivo, 432 h, dose 1.5-3 mg/kg, time 18 day.

The term Cmax denotes the peak of the concentration-time curve. What is called MRT inf is a mean duration of stay, worked out from the concentration-time curve. As a reminder, the AUC(0-inf) is the area under the concentration-time curve extrapolated to infinity. The IC50 is the concentration at which inhibition is half-maximal. The low end stands for greater potency in that assay, the high end for weaker potency in that assay. As usually defined, the Tmax is the time from dosing to the highest level. As for `O=C(O)[C@@H]1[C@H](C(=O)n2ccc3ccccc32)[C@H]2CC[C@@H]1O2`, in data set [1], the highest level (Cmax) was 11300 ng/mL. Also, in data set [2], the Vz came out at 2628.04 mL/kg. Also, in data set [3], the MRT inf stood at 5 h. Further, the result with U-87 MG [4] and in the data set with U-87MG ATCC was Active. The compound further showed an AUC(0-inf) in data set [5] of 54400 ng·h/mL. Further, the IC50 at 48 h in data set [6] is 57.8 µM; in data set [11] it was more than 200 µM. Besides, the Vd in [7] is 1.32 L/kg. In addition, the Activity entry in data set [8] is “Non-Toxic”; in the data set with U-87 MG [9], 10.9%; in data set [13], “Non-Toxic”; in data set [15] it was “Non-Toxic”. The same compound showed an IC50 in data set [10] of 33.8 µM. The Tmax in data set [12] was 1.17 h. Further, in the data set on U-87 MG [14], the inhibition in vivo at 3 mg/kg is 87.7%.
